# Experimental data from patent US20120039805A1, “Therapeutics And Methods For Treating Neoplastic Diseases Comprising Determining The Level Of Caveolin-1 And/Or Caveolin-2 In A Stromal Cell Sample” (PANGEA BIOSCIENCES, INC., priority 2009, published 2012).
# What was measured:
# [1] = tested on: MDA-MB-231 breast cancer cells co-injected with Cav-1-deficient stromal fibroblasts; test: Two-component xenograft: nude mice co-injected with MDA-MB-231 cells and Cav-1-deficient stromal fibroblasts, treated with glycolysis inhibitors; format: in vivo; settings: given individually, 200 mg/kg; mice co-injected with Cav-1-deficient stromal fibroblasts and MDA-MB-231 cells
# Description: Mice co-injected with Cav-1-deficient stromal fibroblasts and MDA-MB-231 breast cancer cells were treated with glycolysis inhibitors. The efficacy of two well-established glycolysis inhibitors, namely 2-DG (2-deoxy-D-glucose) and DCA (dichloro-acetate), individually or in combination were tested.
# To provide additional experimental validation for the idea that an absence of stromal Cav-1 promotes breast cancer tumor growth and angiogenesis, a 2-component cell-system using xenografts in immuno-deficient female nude mice was developed. Briefly, the flanks of nude mice were injected with a mixture of 1) MDA-MB-231 cells (a highly aggressive human breast cancer cell line; 1.0×10^−6 cells) and 2) stromal fibroblasts, derived from either WT or Cav-1 (−/−) null mice (0.3×10^−6 cells). After 3 weeks, nude mice were sacrificed and breast cancer-derived tumors were subjected to analysis for growth (tumor weight and volume measurements) and immuno-histochemistry with markers of angiogenesis, such as CD31 (a.k.a, PECAM1).
# In this two-component system, nude mice are co-injected with i) human breast cancer cells (MDA-MB-231), and ii) stromal fibroblasts (WT versus Cav-1 (−/−) deficient).
# [2] = tested on: PD-ECGF/TP transfected cells; settings: Haraguchi (1993); cited from earlier work
# [3] = tested on: neovascularization; settings: Oikawa (1988); cited from earlier work
# [4] = tested on: invasive carcinomas of the breast; test: Breast cancer tissue microarray cohort: progression-free survival by treatment and stromal Cav-1; format: in vivo, human
# Description: Breast tissues for tissue microarray construction were obtained from the Surgical Pathology tiles at the University of Michigan with institutional Review Board (IRB) approval. The TMA contained tissues derived from 154 largely consecutive patients with invasive carcinomas of the breast, with follow-up information treated at the University of Michigan from 1987-1991. Clinical and pathological variables were determined following well-established criteria. All invasive carcinomas were graded according to the method described by Elston and Ellis 17; Lymphovascular Invasion (LVI) was classified as either present or absent. The tissue microarrays were constructed, as previously described, using a tissue arrayer (Beecher Instruments, Silver Spring, Md.). Three tissue cores (0.6 mm diameter) were sampled from each block to account for tumor and tissue heterogeneity and transferred to the recipient block. Only cases with two or three cores containing tumor stromal cells were considered for statistical analysis in order to address possible heterogeneity of the staining in various tumor portions. Clinical and treatment information was extracted by chart review.
# Our study population consists of 154 women diagnosed with breast cancer, with a median age of 59.5 years (range 28-96 years). 85% of the women were white. The median follow-up time for all survivors was 8.4 years (>30 days-18.5 years). […] The median time to recurrence or death from any cause was 7.1 years.
# Statistical Analysis. For each patient, the date of breast cancer diagnosis, date of last follow-up, vital status at last follow-up, causes of death (breast cancer or other), and breast cancer recurrence, were recorded. Stromal caveolin was scored for each tissue sample based on 3 cores taken from the sample and given a numeric score of 0, 1 or 2, depending on the degree of stromal Cav-1 staining. The median of the three numeric scores was taken to be the stromal Cav-1 score for the sample. In the event that only two of the cores were scorable, and the median score was fractional, it was rounded upward to reflect the presence of stromal Cav-1. […]
# Our primary outcome of interest in this study is progression-free survival (PFS) from time of diagnosis to the presence of metastasis, death, or last visit. PFS is evaluated using Kaplan-Meier estimation, and comparison of stratified survival curves was done using log-rank tests. […] Associations between the presence of stromal Cav-1 and other factors, including age, race, tumor grade, tumor size, lymph node status, histological subtype, estrogen receptor (ER), progesterone receptor (PR) and HER2, and presence of recurrent disease, were evaluated using Fisher's exact and Kruskal-Wallis tests, depending on the discrete or continuous nature of the other factors.
# [5] = tested on: Cav-1; test: Co-culture of MCF-7 cells with normal human fibroblasts: Cav-1 down-regulation in fibroblasts; format: cell-based; settings: within 5 days of co-culture
# Description: Using this system, it was observed that within 5 days of co-culture MCF-7 cells down-regulate the expression of Cav-1 in adjacent stromal fibroblasts. This occurs via the degradation of Cav-1 in lysosomal structures, and can be inhibited by chloroquine, an anti-lysomal agent. Most importantly, MCF-7 cells induce oxidative stress in the adjacent fibroblasts via the over-production of reactive oxygen species (ROS). ROS, in turn, is known to stabilize and activate certain transcription factors, such as NFkB and HIF. NFkB- and HIF- are the master regulators of “inflammation” and “hypoxia/aerobic glycolysis” in the tumor microenvironment. Thus, in order to detect the activation of NFkB and HIF only in the fibroblast cell population, two different fibroblast cell lines engineered to express either a NFkB-luciferase or HIF-luciferase transcriptional reporter were used. […] As such, NFkB is activated first, while HIF is activated on day 4 and day 5 of coculture, coicindent with Cav-1 down-regulation. Thus, cancer cells induce the Warburg effect in adjacent stromal fibroblasts via the activation of NFkB and HIF-target genes, leading to inflammation and aerobic glycolysis. These findings provide a mechanistic basis for the “Reverse Warburg Effect”, and a new high-throughput drug-screening assay for the identification of novel compounds that block the “Reverse Warburg Effect”.
# [6] = Tamoxifen-treated patients, stromal Cav-1 absent
compound,measurement,setting,value
"O=CC[C@@H](O)[C@H](O)[C@H](O)CO [2-DG, 2-deoxy-D-glucose]",effect on tumor growth,[1],no effect on tumor growth
"C[C@H]1O[C@@H](n2cc(F)c(=O)[nH]c2=O)[C@H](O)[C@@H]1O [5′DFUR, 5′-deoxy-5-fluorouridine]",antitumor effect in PD-ECGF/TP transfected cells compared with untransfected wild-type cells,[2],dramatic enhancement of antitumor effect
"CC(=O)O[C@]1(C(C)=O)CC[C@H]2[C@@H]3C[C@H](C)C4=CC(=O)CC[C@]4(C)[C@H]3CC[C@@]21C [MPA, medroxyprogesterone acetate]",neovascularization in the rabbit corneal assay,[3],potently inhibited neovascularization
CC/C(=C(\c1ccccc1)c1ccc(OCCN(C)C)cc1)c1ccccc1 [Tamoxifen],"Hazard ratio, Cox regression of Progression-Free Survival (PFS)","[4]; Tamoxifen use Yes vs No (ref), adjusted for T stage, N stage, stromal Cav-1, 101 observations",0.621
same,Median Progression-Free Survival (PFS),[4]; [6],3.55 years
same,"Percent of Patients Alive with No Recurrence, 5-Year PFS",[4]; [6],28.6%
same,"Percent of Patients Alive with No Recurrence, 5-Year PFS","[4]; Tamoxifen-treated patients, stromal Cav-1 present",90.2%
CCN(CC)CCCC(C)Nc1ccnc2cc(Cl)ccc12 (centres unmarked) [chloroquine],degradation of Cav-1 in lysosomal structures of fibroblasts co-cultured with MCF-7 cells,[5],inhibited
